From patent US11981658B2, “Substituted aminopyridine compounds as EGFR inhibitors” (YUHAN CORPORATION, priority 2021, dated 2024)
Where two headings read alike, the source gives them in different places.

What was measured:
[1] = target: EGFR Del19/C797S (Homo sapiens, UniProt P00533, C797S/DEL746-750); assay: Biochemical EGFR kinase inhibition assay (Lance Ultra TR-FRET), double mutant del19/C797S
How it was run: (§1)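 In this biochemical assay, phosphorylation after a one-hour room-temperature reaction was detected with europium-labelled anti-phosphopeptide antibody at 2 nM final concentration.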

[2] = target: EGFR L858R/C797S (Homo sapiens, UniProt P00533, C797S/L858R); assay: Biochemical EGFR kinase inhibition assay (Lance Ultra TR-FRET), double mutant L858R/C797S
How it was run: as §1

[3] = target: EGFR L858R/T790M/C797S (Homo sapiens, UniProt P00533, C797S/L858R/T790M); assay: Biochemical EGFR kinase inhibition assay (Lance Ultra TR-FRET), triple mutant L858R/T790M/C797S
How it was run: as §1

[4] = target: EGFR Del19/T790M/C797S (Homo sapiens, UniProt P00533, C797S/DEL746-750/T790M); assay: Biochemical EGFR kinase inhibition assay (Lance Ultra TR-FRET), triple mutant del19/T790M/C797S
How it was run: as §1

[5] = target: EGFR wildtype (WT) (Homo sapiens, UniProt P00533); assay: Biochemical EGFR kinase inhibition assay (Lance Ultra TR-FRET), wildtype
How it was run: as §1

[6] = IC50 Del19/C797S (nM), 100 μM ATP
[7] = Km ATP, read-out: IC50 Del19/C797S (nM) Km ATP
[8] = IC50 L858R/C797S (nM), 100 μM ATP
[9] = Km ATP, read-out: IC50 L858R/C797S (nM) Km ATP
[10] = IC50 L858R/T790M/C797S (nM), 100 μM ATP
[11] = Km ATP, read-out: IC50 L858R/T790M/C797S (nM) Km ATP
[12] = IC50 Del19/T790M/C797S (nM), 100 μM ATP
[13] = Km ATP, read-out: IC50 Del19/T790M/C797S (nM) Km ATP
[14] = Km ATP, read-out: IC50 WT (nM) Km ATP
[15] = ATP at Km, read-out: IC50 Del19/C797S (nM), Km ATP
[16] = ATP at Km, read-out: IC50 L858R/C797S (nM), Km ATP
[17] = ATP at Km, read-out: IC50 L858R/T790M/C797S (nM), Km ATP
[18] = ATP at Km, read-out: IC50 Del19/T790M/C797S (nM), Km ATP
[19] = ATP at Km, read-out: IC50 WT (nM), Km ATP

EGFR L858R/C797S, sequence (P00533 25-1210 C797S/L858R): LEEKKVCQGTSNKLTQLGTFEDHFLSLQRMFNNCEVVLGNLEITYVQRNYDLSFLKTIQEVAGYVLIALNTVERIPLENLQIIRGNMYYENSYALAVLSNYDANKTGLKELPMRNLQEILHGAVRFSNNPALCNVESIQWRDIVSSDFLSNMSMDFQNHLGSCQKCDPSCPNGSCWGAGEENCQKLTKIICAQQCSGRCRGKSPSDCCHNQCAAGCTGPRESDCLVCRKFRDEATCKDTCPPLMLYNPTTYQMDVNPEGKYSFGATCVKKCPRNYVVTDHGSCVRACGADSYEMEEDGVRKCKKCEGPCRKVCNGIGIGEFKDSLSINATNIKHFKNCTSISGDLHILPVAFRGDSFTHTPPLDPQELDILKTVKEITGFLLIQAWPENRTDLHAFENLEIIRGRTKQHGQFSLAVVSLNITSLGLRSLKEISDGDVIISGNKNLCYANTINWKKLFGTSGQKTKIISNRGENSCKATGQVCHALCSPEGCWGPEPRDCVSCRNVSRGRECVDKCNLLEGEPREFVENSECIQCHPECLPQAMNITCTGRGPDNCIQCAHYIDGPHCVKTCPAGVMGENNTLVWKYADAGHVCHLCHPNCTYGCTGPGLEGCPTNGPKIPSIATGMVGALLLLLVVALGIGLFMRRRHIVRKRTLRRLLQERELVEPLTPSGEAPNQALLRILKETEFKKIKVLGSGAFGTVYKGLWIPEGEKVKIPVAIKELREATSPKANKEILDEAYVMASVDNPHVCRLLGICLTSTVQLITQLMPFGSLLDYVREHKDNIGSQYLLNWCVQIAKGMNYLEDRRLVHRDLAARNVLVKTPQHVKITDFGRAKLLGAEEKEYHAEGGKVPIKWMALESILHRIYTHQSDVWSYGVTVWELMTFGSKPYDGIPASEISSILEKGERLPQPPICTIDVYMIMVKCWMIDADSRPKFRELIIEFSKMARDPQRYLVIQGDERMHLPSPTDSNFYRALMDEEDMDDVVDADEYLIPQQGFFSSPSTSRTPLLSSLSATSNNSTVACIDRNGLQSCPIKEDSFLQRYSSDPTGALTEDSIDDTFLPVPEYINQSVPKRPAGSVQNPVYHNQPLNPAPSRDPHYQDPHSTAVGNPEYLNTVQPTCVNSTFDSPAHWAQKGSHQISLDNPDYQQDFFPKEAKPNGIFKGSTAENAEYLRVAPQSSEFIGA
EGFR L858R/T790M/C797S, sequence (P00533 25-1210 T790M/C797S/L858R): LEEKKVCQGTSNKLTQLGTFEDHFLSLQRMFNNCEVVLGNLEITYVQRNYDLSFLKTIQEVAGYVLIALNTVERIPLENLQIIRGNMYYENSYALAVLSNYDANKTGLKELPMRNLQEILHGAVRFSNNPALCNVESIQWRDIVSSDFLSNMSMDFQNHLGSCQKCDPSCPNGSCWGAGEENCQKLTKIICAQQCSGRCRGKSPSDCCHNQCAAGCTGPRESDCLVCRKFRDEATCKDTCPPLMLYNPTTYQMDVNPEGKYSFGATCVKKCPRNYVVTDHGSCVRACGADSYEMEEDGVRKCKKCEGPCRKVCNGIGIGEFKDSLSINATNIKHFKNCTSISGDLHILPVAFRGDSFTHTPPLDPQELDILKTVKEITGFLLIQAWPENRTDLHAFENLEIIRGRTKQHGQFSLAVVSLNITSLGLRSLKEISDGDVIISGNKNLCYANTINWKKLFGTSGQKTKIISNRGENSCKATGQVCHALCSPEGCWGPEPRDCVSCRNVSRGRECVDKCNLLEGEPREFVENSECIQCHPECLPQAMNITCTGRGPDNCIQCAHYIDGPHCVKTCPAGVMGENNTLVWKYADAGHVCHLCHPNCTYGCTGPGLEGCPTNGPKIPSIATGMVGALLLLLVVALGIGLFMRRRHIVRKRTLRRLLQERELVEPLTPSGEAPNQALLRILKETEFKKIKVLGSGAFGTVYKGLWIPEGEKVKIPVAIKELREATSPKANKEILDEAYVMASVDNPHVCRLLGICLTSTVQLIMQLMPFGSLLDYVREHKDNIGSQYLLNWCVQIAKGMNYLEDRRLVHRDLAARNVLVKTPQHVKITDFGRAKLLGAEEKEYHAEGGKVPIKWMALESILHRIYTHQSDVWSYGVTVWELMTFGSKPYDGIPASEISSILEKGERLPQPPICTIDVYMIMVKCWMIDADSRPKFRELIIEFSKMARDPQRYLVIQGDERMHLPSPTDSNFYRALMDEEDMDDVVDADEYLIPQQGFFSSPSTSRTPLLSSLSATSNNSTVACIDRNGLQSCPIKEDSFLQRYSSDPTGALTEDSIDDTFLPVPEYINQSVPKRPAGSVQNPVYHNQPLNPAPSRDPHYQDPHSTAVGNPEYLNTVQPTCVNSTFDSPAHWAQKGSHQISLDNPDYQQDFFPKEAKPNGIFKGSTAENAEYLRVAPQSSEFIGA
EGFR Del19/T790M/C797S, sequence (P00533 with tags, fused parts or gaps DEL746-750/T790M/C797S): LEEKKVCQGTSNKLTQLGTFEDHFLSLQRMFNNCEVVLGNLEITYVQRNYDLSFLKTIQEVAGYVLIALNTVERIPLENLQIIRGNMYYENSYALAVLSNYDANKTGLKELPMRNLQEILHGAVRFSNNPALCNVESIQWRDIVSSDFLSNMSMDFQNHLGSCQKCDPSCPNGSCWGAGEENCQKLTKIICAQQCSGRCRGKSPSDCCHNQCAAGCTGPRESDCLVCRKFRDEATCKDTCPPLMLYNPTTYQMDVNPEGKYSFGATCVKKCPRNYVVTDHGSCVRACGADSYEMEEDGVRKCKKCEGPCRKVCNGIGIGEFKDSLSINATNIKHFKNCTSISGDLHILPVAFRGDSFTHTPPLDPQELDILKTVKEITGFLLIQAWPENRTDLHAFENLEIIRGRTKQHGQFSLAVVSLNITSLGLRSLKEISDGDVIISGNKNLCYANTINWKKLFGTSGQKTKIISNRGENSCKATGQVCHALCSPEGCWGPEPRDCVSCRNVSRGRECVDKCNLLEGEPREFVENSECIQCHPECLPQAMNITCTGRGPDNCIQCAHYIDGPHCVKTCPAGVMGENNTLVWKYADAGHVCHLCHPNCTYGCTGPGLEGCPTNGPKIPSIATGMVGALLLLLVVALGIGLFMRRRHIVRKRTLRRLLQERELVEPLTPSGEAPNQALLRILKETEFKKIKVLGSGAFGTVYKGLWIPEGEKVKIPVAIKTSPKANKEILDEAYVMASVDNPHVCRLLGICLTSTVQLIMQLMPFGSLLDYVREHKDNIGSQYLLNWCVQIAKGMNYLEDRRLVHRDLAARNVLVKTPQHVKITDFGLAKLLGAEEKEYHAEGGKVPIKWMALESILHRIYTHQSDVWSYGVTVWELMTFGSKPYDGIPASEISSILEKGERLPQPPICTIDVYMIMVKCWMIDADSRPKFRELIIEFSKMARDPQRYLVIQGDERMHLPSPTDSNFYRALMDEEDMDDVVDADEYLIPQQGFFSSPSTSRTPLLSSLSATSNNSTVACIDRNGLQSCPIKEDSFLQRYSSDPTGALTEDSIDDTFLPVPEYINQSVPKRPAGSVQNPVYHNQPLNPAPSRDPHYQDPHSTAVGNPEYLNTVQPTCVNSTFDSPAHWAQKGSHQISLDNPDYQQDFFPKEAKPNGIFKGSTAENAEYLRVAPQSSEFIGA
EGFR wildtype (WT), sequence (P00533 25-1210): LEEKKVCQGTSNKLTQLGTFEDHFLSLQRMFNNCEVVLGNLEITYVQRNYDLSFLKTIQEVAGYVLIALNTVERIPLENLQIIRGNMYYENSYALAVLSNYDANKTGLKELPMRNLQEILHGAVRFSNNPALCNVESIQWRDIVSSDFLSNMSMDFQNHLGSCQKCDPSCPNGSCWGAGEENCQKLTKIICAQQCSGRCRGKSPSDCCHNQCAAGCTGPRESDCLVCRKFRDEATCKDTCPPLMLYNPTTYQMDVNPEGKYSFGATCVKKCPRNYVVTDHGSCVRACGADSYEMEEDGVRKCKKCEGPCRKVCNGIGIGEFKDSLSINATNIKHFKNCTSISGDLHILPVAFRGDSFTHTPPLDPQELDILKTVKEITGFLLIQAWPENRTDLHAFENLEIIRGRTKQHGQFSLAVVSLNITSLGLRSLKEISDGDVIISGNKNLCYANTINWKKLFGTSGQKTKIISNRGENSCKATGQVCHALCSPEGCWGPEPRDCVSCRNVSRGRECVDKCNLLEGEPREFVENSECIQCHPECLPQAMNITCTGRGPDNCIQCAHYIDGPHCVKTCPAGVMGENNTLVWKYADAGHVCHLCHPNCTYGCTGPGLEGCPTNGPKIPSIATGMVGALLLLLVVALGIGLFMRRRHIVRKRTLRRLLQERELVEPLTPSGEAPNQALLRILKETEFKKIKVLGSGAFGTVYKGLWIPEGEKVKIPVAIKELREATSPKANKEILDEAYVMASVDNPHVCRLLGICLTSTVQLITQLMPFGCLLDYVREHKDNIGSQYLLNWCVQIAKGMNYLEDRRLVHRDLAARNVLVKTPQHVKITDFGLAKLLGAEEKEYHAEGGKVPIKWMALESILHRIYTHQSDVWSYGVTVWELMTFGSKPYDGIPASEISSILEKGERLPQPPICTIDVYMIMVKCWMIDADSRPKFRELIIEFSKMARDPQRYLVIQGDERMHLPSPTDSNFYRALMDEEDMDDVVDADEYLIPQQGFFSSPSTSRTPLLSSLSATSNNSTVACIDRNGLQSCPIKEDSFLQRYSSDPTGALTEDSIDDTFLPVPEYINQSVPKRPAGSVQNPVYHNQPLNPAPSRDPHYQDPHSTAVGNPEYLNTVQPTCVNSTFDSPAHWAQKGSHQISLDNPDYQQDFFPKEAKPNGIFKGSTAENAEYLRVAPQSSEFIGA

Row | Compound | IC50 [1, 6] [nM] | IC50 [1, 7] [nM] | IC50 [2, 8] [nM] | IC50 [2, 9] [nM] | IC50 [3, 10] [nM] | IC50 [3, 11] [nM] | IC50 [4, 12] [nM] | IC50 [4, 13] [nM] | IC50 ([5]; IC50 WT (nM), 100 μM ATP) [nM] | IC50 [5, 14] [nM] | IC50 [1, 15] [nM] | IC50 [2, 16] [nM] | IC50 [3, 17] [nM] | IC50 [4, 18] [nM] | IC50 [5, 19] [nM]
1 | CN(C)CCNC1CCN(c2cc(Nc3ccnc(-c4cnn(S(=O)(=O)C5CC5)c4)n3)ncc2C#Cc2ccn(C)n2)CC1 [Example 142, N^1-(1-(2-((2-(1-(Cyclopropylsulfonyl)-1H-pyrazol-4-yl)pyrimidin-4-yl)amino)-5-((1-methyl-1H-pyrazol-3-yl)ethynyl)pyridin-4-yl)piperidin-4-yl)-N^2,N^2-dimethylethane-1,2-diamine] | 8.4 | 5.9 | 176 | 3.9 | 0.9 | 0.2 | 0.4 | 0.4 | > 10000 | 31.3 | – | – | – | – | –
2 | CN(C)CCNC1CCN(c2cc(Nc3ccnc(-c4cnn(S(=O)(=O)C5CC5)c4)n3)ncc2C#Cc2cnn(C(F)(F)F)c2)CC1 [Example 143, N^1-(1-(2-((2-(1-(Cyclopropylsulfonyl)-1H-pyrazol-4-yl)pyrimidin-4-yl)amino)-5-((1-(trifluoromethyl)-1H-pyrazol-4-yl)ethynyl)pyridin-4-yl)piperidin-4-yl)-N^2,N^2-dimethylethane-1,2-diamine] | 1.9 | 1.2 | 83.5 | 1.8 | 0.9 | 0.3 | 0.5 | 0.5 | > 10000 | 14.3 | – | – | – | – | –
3 | CN(C)CCn1cc(C#Cc2cnc(Nc3ccnc(-c4cnn(S(=O)(=O)C5CC5)c4)n3)cc2N2CCC(NCCF)CC2)cn1 [Example 144, 2-(1-(Cyclopropylsulfonyl)-1H-pyrazol-4-yl)-N-(5-((1-(2-(dimethylamino)ethyl)-1H-pyrazol-4-yl)ethynyl)-4-(4-((2-fluoroethyl)amino)piperidin-1-yl)pyridin-2-yl)pyrimidin-4-amine] | 0.9 | 0.8 | 34.3 | 0.8 | 0.4 | 0.1 | 0.3 | 0.3 | > 10000 | 23.8 | – | – | – | – | –
4 | CN(C)CCCn1cc(C#Cc2cnc(Nc3ccnc(-c4cnn(S(=O)(=O)C5CC5)c4)n3)cc2N2CCC(NCCF)CC2)cn1 [Example 145, 2-(1-(Cyclopropylsulfonyl)-1H-pyrazol-4-yl)-N-(5-((1-(3-(dimethylamino)propyl)-1H-pyrazol-4-yl)ethynyl)-4-(4-((2-fluoroethyl)amino)piperidin-1-yl)pyridin-2-yl)pyrimidin-4-amine] | 0.7 | 0.6 | 23.4 | 0.5 | 0.3 | 0.1 | 0.2 | 0.2 | 5550 | 14.2 | – | – | – | – | –
5 | CNCC1(C)CCN(c2cc(Nc3ccnc(-c4cnn(S(=O)(=O)C5CC5)c4)n3)ncc2C#Cc2cnn(C)c2)CC1 [Example 146, 2-(1-(Cyclopropylsulfonyl)-1H-pyrazol-4-yl)-N-(5-((1-methyl-1H-pyrazol-4-yl)ethynyl)-4-(4-methyl-4-((methylamino)methyl)piperidin-1-yl)pyridin-2-yl)pyrimidin-4-amine] | 0.5 | 0.2 | 1.5 | 0.3 | 0.1 | 0.04 | 0.2 | 0.1 | 348 | 0.8 | – | – | – | – | –
6 | CN1CCC(n2cc(C#Cc3cnc(Nc4ccnc(-c5cnn(S(=O)(=O)C6CC6)c5)n4)cc3N3CCC(C)(CO)CC3)cn2)CC1 [Example 147, (1-(2-((2-(1-(Cyclopropylsulfonyl)-1H-pyrazol-4-yl)pyrimidin-4-yl)amino)-5-((1-(1-methylpiperidin-4-yl)-1H-pyrazol-4-yl)ethynyl)pyridin-4-yl)-4-methylpiperidin-4-yl)methanol] | 0.4 | 0.2 | 0.7 | 0.2 | 0.2 | 0.1 | 0.4 | 0.2 | 43.3 | 0.4 | – | – | – | – | –
7 | CN1CC(n2cc(C#Cc3cnc(Nc4ccnc(-c5cnn(S(=O)(=O)C6CC6)c5)n4)cc3N3CCC(C)(CO)CC3)cn2)C1 [Example 148, (1-(2-((2-(1-(Cyclopropylsulfonyl)-1H-pyrazol-4-yl)pyrimidin-4-yl)amino)-5-((1-(1-methylazetidin-3-yl)-1H-pyrazol-4-yl)ethynyl)pyridin-4-yl)-4-methylpiperidin-4-yl)methanol] | 0.3 | 0.2 | 0.6 | 0.2 | 0.2 | 0.1 | 0.3 | 0.2 | 47 | 0.4 | – | – | – | – | –
8 | CC1(CO)CCN(c2cc(Nc3ccnc(-c4cnn(S(=O)(=O)C5CC5)c4)n3)ncc2C#Cc2cnn3c2CNCC3)CC1 [Example 149, (1-(2-((2-(1-(Cyclopropylsulfonyl)-1H-pyrazol-4-yl)pyrimidin-4-yl)amino)-5-((4,5,6,7-tetrahydropyrazolo[1,5-a]pyrazin-3-yl)ethynyl)pyridin-4-yl)-4-methylpiperidin-4-yl)methanol] | 0.4 | 0.2 | 3.4 | 0.3 | 0.2 | 0.1 | 0.4 | 0.2 | 853 | 1.6 | – | – | – | – | –
9 | CN1CCn2ncc(C#Cc3cnc(Nc4ccnc(-c5cnn(S(=O)(=O)C6CC6)c5)n4)cc3N3CCC(C)(CO)CC3)c2C1 [Example 150, (1-(2-((2-(1-(Cyclopropylsulfonyl)-1H-pyrazol-4-yl)pyrimidin-4-yl)amino)-5-((5-methyl-4,5,6,7-tetrahydropyrazolo[1,5-a]pyrazin-3-yl)ethynyl)pyridin-4-yl)-4-methylpiperidin-4-yl)methanol] | 0.7 | 0.8 | 8.9 | 2.2 | 0.5 | 0.2 | 0.5 | 0.5 | 3760 | 4.9 | – | – | – | – | –
10 | CC1(CO)CCN(c2cc(Nc3ccnc(-c4cnn(S(=O)(=O)C5CC5)c4)n3)ncc2C#Cc2cnn3c2CN(CC(F)F)CC3)CC1 [Example 151, (1-(2-((2-(1-(Cyclopropylsulfonyl)-1H-pyrazol-4-yl)pyrimidin-4-yl)amino)-5-((5-(2,2-difluoroethyl)-4,5,6,7-tetrahydropyrazolo[1,5-a]pyrazin-3-yl)ethynyl)pyridin-4-yl)-4-methylpiperidin-4-yl)methanol] | 3.5 | – | 57.8 | – | 3 | – | 2.6 | – | > 10000 | – | 4.2 | 8.6 | 1.1 | 2.4 | 29.4
11 | CN(C)CCCn1cc(C#Cc2cnc(Nc3ccnc(-c4cnn(S(=O)(=O)C5CC5)c4)n3)cc2N2CCC3(CC2)CC(C)(O)C3)cn1 [Example 152, 7-(2-((2-(1-(Cyclopropylsulfonyl)-1H-pyrazol-4-yl)pyrimidin-4-yl)amino)-5-((1-(3-(dimethylamino)propyl)-1H-pyrazol-4-yl)ethynyl)pyridin-4-yl)-2-methyl-7-azaspiro[3.5]nonan-2-ol] | 0.4 | – | 0.8 | – | 0.2 | – | 0.3 | – | 196 | – | 0.1 | 0.2 | 0.1 | 0.2 | 0.6
12 | CNCCC1CCN(c2cc(Nc3ccnc(-c4cnn(S(=O)(=O)C5CC5)c4)n3)ncc2C#Cc2cnn(C)c2)CC1 [Example 153, 2-(1-(Cyclopropylsulfonyl)-1H-pyrazol-4-yl)-N-(5-((1-methyl-1H-pyrazol-4-yl)ethynyl)-4-(4-(2-(methylamino)ethyl)piperidin-1-yl)pyridin-2-yl)pyrimidin-4-amine] | 0.3 | – | 5.1 | – | 0.1 | – | 0.1 | – | 822 | – | 0.3 | 1.8 | 0.04 | 0.1 | 1.9
13 | Cn1cc(C#Cc2cnc(Nc3ccnc(-c4cnn(S(=O)(=O)C5CC5)c4)n3)cc2N2CCC3(CCNCC3)C2)cn1 [Example 154, 2-(1-(Cyclopropylsulfonyl)-1H-pyrazol-4-yl)-N-(5-((1-methyl-1H-pyrazol-4-yl)ethynyl)-4-(2,8-diazaspiro[4.5]decan-2-yl)pyridin-2-yl)pyrimidin-4-amine] | 12 | – | 145 | – | 4.3 | – | 1.4 | – | 6720 | – | 6 | 6.4 | 0.3 | 0.4 | 44.4
